Experimental data as given in PubChem BioAssay (NCI).
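Exposure lasted 48 hours, with cells grown in 96-well plates and compounds tested at five concentrations. TGI: concentration producing complete growth inhibition.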

Experiments:
Experiment in all cases: NCI tumour cell line growth inhibition, 48 h
[1] = system: PC-3 prostate
[2] = system: A549 NSCLC
[3] = system: MALME-3M melanoma
[4] = system: IGROV1 ovarian
[5] = system: HT29 colon
[6] = system: ACHN renal
[7] = system: T-47D breast
[8] = system: HCT-116 colon
[9] = system: MOLT-4 leukemia
[10] = system: SNB-19 CNS
[11] = system: SK-MEL-5 melanoma
[12] = system: UACC-62 melanoma
[13] = system: CAKI-1 renal
[14] = system: MDA-MB-231 breast
[15] = system: OVCAR-3 ovarian
[16] = system: NCI-H226 lung
[17] = system: RXF 393 renal
[18] = system: MCF7 breast
[19] = system: SR leukemia
[20] = system: HOP-62 NSCLC

SMILES | TGI [1] | TGI [2] | TGI [3] | TGI [4] | TGI [5] | TGI [6] | TGI [7] | TGI [8] | TGI [9] | TGI [10] | TGI [11] | TGI [12] | TGI [13] | TGI [14] | TGI [15] | TGI [16] | TGI [17] | TGI [18] | TGI [19] | TGI [20]
N#CC(N)c1ccc(OCCCCCCCCCCOc2ccc(C(N)C#N)cc2)cc1 (configuration not stated) | > 100 µM | > 100 µM | > 100 µM | > 100 µM | > 100 µM | > 100 µM | > 100 µM | > 100 µM | > 100 µM | > 100 µM | > 100 µM | > 100 µM | > 100 µM | > 100 µM | > 100 µM | > 100 µM | > 100 µM | > 100 µM |  | 
C=C1CC2CCCC12C=O (configuration not stated) | > 10 µM | > 10 µM | > 10 µM | > 10 µM | > 10 µM | > 10 µM | > 10 µM | > 10 µM | > 10 µM | > 10 µM | > 10 µM | > 10 µM | > 10 µM | > 10 µM | > 10 µM |  |  | > 10 µM | > 10 µM | > 10 µM
CCOP(=O)(OCC)C(C)(C)N(C)/C(F)=N/C(F)(F)F | > 100 µM | > 100 µM | > 100 µM | > 100 µM | > 100 µM | > 100 µM | > 100 µM | > 100 µM | > 100 µM |  | > 100 µM | > 100 µM | > 100 µM | > 100 µM | > 100 µM | > 100 µM |  | > 100 µM | > 100 µM | > 100 µM
CCCCCC1CC=CC(=O)O1 (configuration not stated) | 26.3 µM | 65.8 µM | 20.2 µM | 17.7 µM | 17.8 µM | 33 µM | 62.4 µM | 5.83 µM | > 100 µM | 54.1 µM | 26.8 µM | 25.3 µM | 20.5 µM | 24.1 µM | 31.3 µM |  | 23.1 µM | 40.3 µM | 31.6 µM | 18.5 µM
COc1cc(=O)c2c(O)c3c(O)oc(C)cc3c(OC)c2c1 | > 100 µM | 87.7 µM | 47 µM | 70.2 µM | 40.7 µM | 63 µM | 90.8 µM | 38.4 µM | 73.7 µM | > 100 µM | 64.5 µM | 52.9 µM | 97.5 µM | 62.5 µM | 59.1 µM |  | > 100 µM | > 100 µM | 64.2 µM | 76.1 µM
C=CCNC(=S)N=Nc1c(O)n(CN2CCOCC2)c2ccc([N+](=O)[O-])cc12 | > 100 µM | > 100 µM | > 100 µM | > 100 µM | > 100 µM | > 100 µM | 95.1 µM | > 100 µM | > 100 µM | > 100 µM | 84.6 µM | > 100 µM | > 100 µM | > 100 µM | > 100 µM | > 100 µM | > 100 µM | > 100 µM |  | > 100 µM
COc1cc(/C=C2/SC(c3ccccc3)N(Cc3ccccc3)C2=O)cc(OC)c1OC (configuration not stated) |  | > 100 µM | > 100 µM |  | > 100 µM | > 100 µM | > 100 µM | > 100 µM | 63.2 µM | > 100 µM | 28 µM | > 100 µM | > 100 µM | > 100 µM | > 100 µM | > 100 µM | 72.3 µM | > 100 µM | 45.1 µM | > 100 µM
O=C(c1cc2ccccc2[nH]1)N1C2CCC1CN(CCOC(c1ccc(F)cc1)c1ccc(F)cc1)CC2 (configuration not stated) | > 100 µM | > 100 µM | > 100 µM | > 100 µM | > 100 µM | > 100 µM | > 100 µM | > 100 µM | > 100 µM | > 100 µM | > 100 µM | > 100 µM | > 100 µM | > 100 µM | > 100 µM | > 100 µM | 8.41 µM | > 100 µM |  | > 100 µM
O=Cc1c2n(c3ccccc13)N[C@@](Cc1ccc(O)cc1)(C(=O)O)C2 | > 100 µM | > 100 µM | > 100 µM | > 100 µM | > 100 µM | > 100 µM | > 100 µM | > 100 µM | > 100 µM | > 100 µM | > 100 µM | > 100 µM | > 100 µM | > 100 µM | > 100 µM | > 100 µM |  | > 100 µM | > 100 µM | > 100 µM
O=P1(Oc2ccccc2)N=P(c2ccccc2)(c2ccccc2)C=C(c2ccc(Cl)cc2)N1 (configuration not stated) | 20.7 µM | 16.1 µM | 29.6 µM | 26.5 µM | 15.5 µM | 25.6 µM | 24.7 µM | 30.5 µM | 22.4 µM | 29.7 µM | 10.2 µM | 27.5 µM | 23 µM | 32.1 µM | 13.6 µM |  |  | 9.31 µM | 21.5 µM | 33.6 µM
CCN(CC)C(=O)Cn1c(-c2ccccc2)cc2ccccc21 | > 100 µM | > 100 µM | > 100 µM | > 100 µM | > 100 µM | > 100 µM | > 100 µM | > 100 µM | 42.7 µM | > 100 µM | 31.9 µM |  |  | > 100 µM | > 100 µM | > 100 µM | 97.4 µM | > 100 µM | > 100 µM | > 100 µM
O=C(O)CSC(CC1(c2ccc(Cl)cc2)NC(=O)CS1)c1ccc(Cl)cc1 (configuration not stated) | > 100 µM | > 100 µM |  | > 100 µM | > 100 µM | > 100 µM | > 100 µM | > 100 µM | > 100 µM | > 100 µM | > 100 µM | > 100 µM | > 100 µM | > 100 µM | > 100 µM |  |  | > 100 µM | > 100 µM | > 100 µM
Cc1ccc2c(=O)cc(Cc3cccs3)[nH]c2n1 | > 100 µM | > 100 µM | > 100 µM | > 100 µM | > 100 µM |  | > 100 µM | > 100 µM | > 100 µM | > 100 µM | > 100 µM | > 100 µM | > 100 µM | > 100 µM | > 100 µM | > 100 µM | > 100 µM | > 100 µM |  | > 100 µM
Cc1c2ccnc(C(=O)NCCN(C)C)c2cc2c3cc(O)ccc3n(C)c12 | 2 µM | 7.26 µM | 2.06 µM | 6.72 µM | 3.87 µM | 0.397 µM | 2.83 µM | 6.1 µM | 0.0147 µM | 5.16 µM | 1.45 µM | 1.01 µM |  | 3.35 µM | 2.77 µM | 2.26 µM | 2.31 µM | 5.75 µM | < 0.0564 µM | 2.16 µM
O=C(c1ccccc1)c1ccc(N2C(=O)/C(=C/Cc3ccco3)N=C2c2ccccc2)c(N2C(=O)/C(=C/Cc3ccco3)N=C2c2ccccc2)c1 | > 100 µM | > 100 µM |  | > 100 µM | > 100 µM | > 100 µM | > 100 µM | > 100 µM | 56.6 µM | > 100 µM | 88.5 µM | > 100 µM | > 100 µM | > 100 µM | 46.7 µM |  |  | > 100 µM | > 100 µM | > 100 µM
CN(C)CCNc1nc2ccccc2c2c1CCCC2 | > 100 µM | > 100 µM | 30.1 µM | 38.3 µM | 95.1 µM | 65.3 µM | 40.4 µM | 30.2 µM | 61.8 µM | > 100 µM | 32.4 µM | 31.1 µM | 44.7 µM | 33.6 µM | > 100 µM | 55.7 µM | 22.9 µM | 29.1 µM |  | 35.8 µM
c1ccc2c(CN3CCN(Cc4c[nH]c5ccccc45)CC3)c[nH]c2c1 | 43.7 µM |  | 29.5 µM | 27.4 µM | 36.1 µM | 40.6 µM | 39.1 µM | 28.6 µM |  | 45.9 µM | 29.1 µM | 29.9 µM | 69.4 µM | 31.2 µM | 35.6 µM | 37.7 µM | 28.8 µM | 36.9 µM | 44.8 µM | 31.2 µM
O=C(NC(=S)Nc1ccc2c(c1)Sc1ccccc1O2)c1ccc([N+](=O)[O-])cc1 | > 100 µM | > 100 µM | > 100 µM | > 100 µM | > 100 µM | > 100 µM | > 100 µM | > 100 µM |  | > 100 µM | > 100 µM | > 100 µM | > 100 µM | > 100 µM | > 100 µM | > 100 µM | > 100 µM | > 100 µM | > 100 µM | > 100 µM
OCc1cc2c(ccc3sc4ccc5sc6ccc7ncccc7c6c5c4c32)s1 | 43.9 µM | 31.1 µM |  | 26.4 µM | 39.7 µM | > 100 µM | 24.9 µM | 23 µM | 48.4 µM | 28.7 µM | 11.8 µM | 38.6 µM | 36.6 µM | 18.2 µM | > 100 µM | > 100 µM | 28.9 µM | 42.2 µM | > 100 µM | 28.6 µM
CCCCc1ccc(Nc2nc(Cl)c3ncn(COCCOC(C)=O)c3n2)cc1 | 32.2 µM | 51.2 µM | 31.7 µM | 31.6 µM | 32.2 µM | 32.7 µM | 65.9 µM | 31.7 µM | 61.8 µM | 38.7 µM | 30.9 µM | 31.9 µM |  | 30.6 µM | 43.4 µM | 50.7 µM | 38.2 µM | 93.7 µM | 53.8 µM | 30.8 µM
COc1ccc(N=C2S/C(=N\C(=Nc3ccccc3)SCc3ccccc3)N(c3ccccc3)C2=Nc2ccc(OC)cc2)cc1 | > 100 µM | > 100 µM | > 100 µM | > 100 µM | > 100 µM |  | > 100 µM | > 100 µM | > 100 µM | > 100 µM | > 100 µM | > 100 µM |  | > 100 µM |  | > 100 µM | > 100 µM | > 100 µM | > 100 µM | > 100 µM
CC(=O)OCC(C)C1=C(OC(C)=O)C(=O)C2(C)C/C=C(/C)CC/C=C(\C)CCC(OC(C)=O)C(C)CCC12 (configuration not stated) | 30.2 µM |  |  | 48.3 µM | 33.5 µM | 39.3 µM | 89 µM | 36 µM | 27.9 µM | 43.9 µM | 30.2 µM | 28 µM |  | 27.7 µM |  |  |  | 38.2 µM | 40.3 µM | 27.5 µM
c1cnn(C23C4C5C6C4C2C6C53)c1 (configuration not stated) | > 100 µM | > 100 µM |  | > 100 µM | > 100 µM | > 100 µM | > 100 µM | > 100 µM | > 100 µM | > 100 µM | > 100 µM |  |  | > 100 µM |  | > 100 µM |  | > 100 µM | > 100 µM | > 100 µM
CCOc1ccc2nc3nc(=O)[nH]c(C)c3c(NCCCN(CC)CC)c2c1 | > 100 µM | > 100 µM | > 100 µM | > 100 µM | > 100 µM | > 100 µM | > 100 µM | > 100 µM | > 100 µM | > 100 µM | > 100 µM | > 100 µM | > 100 µM | > 100 µM | > 100 µM | > 100 µM | > 100 µM | > 100 µM |  | > 100 µM
C=CCc1[nH]c2c(OCc3ccccc3)cc(N(CC=C)C(C)=O)cc2c1C | 20.2 µM | 26.2 µM | 30.4 µM | 28 µM | 20.5 µM | 25.3 µM | 26.4 µM | 24.8 µM | 30.7 µM | 25.3 µM | 24 µM | 26.9 µM | 29.9 µM | 23.2 µM | 29.6 µM | 37.2 µM | 26.7 µM | 24.9 µM |  | 36.7 µM
